Laboratory results as given in US10857201B2, “NNIF and nNIF-related peptides and related methods” (UNIVERSITY OF UTAH RESEARCH FOUNDATION, priority 2016, dated 2020).

Experiments:
PMN chemotaxis = experiment: IL-8 induced chemotaxis, modified Boyden chamber; format: cell-based, human; conditions: IL-8 2 ng/mL, peptides 1 nM
Procedure: FIG. 6D is a graph depicting chemotaxis in response to IL-8 (2 ng/mL) that was examined in a Boyden chamber assay. The dashed line indicates the response to IL-8 alone arbitrarily set at 1.
Chemotaxis by PMNs isolated from healthy adult donors was assessed using a modified Boyden chamber assay ± a 1 hour pre-incubation with nNIF (1 nM), CRISPP (1 nM), or CRISPP-SCR (1 nM). Recombinant human IL-8 (2 ng/mL) was used as the chemoattractant. Chemotaxis through a 5 micron filter was determined by counting PMNs in 10 randomly selected high-power fields as previously described (see Hill H R, et al., Lancet. 1974; 2 (7881):617-9). In separate experiments, nNIF, CRISPP, or CRISPP-SCR (all at 1 nM) were evaluated for chemoattractant activity using the same system.
Without being bound by any specific theory, it was hypothesized that placentally expressed HTRA1, a serine protease, regulates the formation of NET-inhibitory peptides through cleavage of AAT. To test this hypothesis, term and preterm placenta were assessed for HTRA1 expression via western blotting. HTRA1 and AAT plasma expression from term and preterm infants and adults were determined by ELISA. […] Carboxy-terminus fragments of AAT were detected using western blotting and mass spectrometry. […] Reactive oxygen species were assessed using flow cytometry, chemotaxis using a modified Boyden chamber assay, and bacterial killing using E. coli.

[1] = tested on: NET formation in E. coli peritonitis; experiment: Mouse model of E. coli peritonitis (in vivo NET formation); conditions: for NET formation by peritoneal fluid PMNs / deployment of NETs on the peritoneal surface / number of PMNs in peritoneal fluid: C57BL/6 mice, 3 hours; for NET formation by peritoneal fluid PMNs / deployment of NETs on the peritoneal surface: 10 mg/kg i.p. 1 hour before E. coli i.p.; for number of PMNs in peritoneal fluid: E. coli i.p.; for peritoneal NET formation: Swiss Webster mice infected with E. coli
Text: FIG. 8A depicts results of peritoneal fluid NET formation (red fluorescence, yellow arrow) assessed by live cell imaging (60× magnification, scale bar=50 μm) and histone H3 release (red dashed line=baseline arbitrarily set at 1). Three mice per group. One way ANOVA with Tukey's post hoc testing, ***P<0.001 for CRISPP and nNIF versus CRISPP-SCR.
FIG. 8B depicts results of NET formation on the surfaces of peritoneal membranes (red fluorescence, yellow arrows) that was quantified by counting the number of NETs that crossed standardized grid lines in […] (60× magnification; scale bar=50 μm) using IMAGEJ™ software. A second experiment yielded a similar pattern. FIGS. 8A and 8B depict C57BL/6 mice that were not pretreated or pretreated with nNIF, CRISPP, or CRISPP-SCR (10 mg/kg i.p.; 1 hour) and were inoculated with E. coli (4.5×10^7 bacteria i.p.). After 3 hours, the animals were sacrificed, and peritoneal fluid (FIG. 8A) and membranes (FIG. 8B) were collected for analysis.
FIG. 8C depicts C57BL/6 mice that were not pretreated (left two bars) or that were pretreated with CRISPP, nNIF, or CRISPP-SCR, and that were inoculated with E. coli i.p. as in FIGS. 8A and 8B. Neutrophil numbers in peritoneal fluid were counted after 3 hours (3-5 mice/group). […]
FIG. 8E depicts peritoneal fluid NET formation, imaged and measured as in FIG. 8A (10 mice/group). *P<0.05 for CRISPP/E. coli and nNIF/E. coli compared to CRISPP-SCR/E. coli and E. coli.
FIG. 8F depicts NET formation on peritoneal membrane surfaces, imaged and quantitated as in FIG. 8B (3 mice in each group). *P<0.05 for E. coli versus control (red dashed line); **P<0.01 for CRISPP-SCR/E. coli versus control; †P<0.05 for CRISPP/E. coli and nNIF/E. coli versus CRISPP-SCR/E. coli. One way ANOVA with Tukey's post-hoc testing applied in FIGS. 8E and 8F. In FIGS. 8E and 8F, Swiss-Webster mice that were not pretreated or that were pretreated with nNIF, CRISPP, or CRISPP-SCR were inoculated with E. coli i.p. as in FIGS. 8A and 8B. After 3 hours, peritoneal fluid and membranes were collected. FIGS. 8A-8F indicate that nNIF and CRISPP inhibit in vivo NET formation.
C57/BL6 or Swiss-Webster mice were pretreated in blinded fashion with CRISPP (10 mg/kg), nNIF (10 mg/kg), or CRISPP-SCR (10 mg/kg) by i.p. injection 1 hour prior to infection (E. coli, 4.5×10^7 cfu/mouse, i.p.) or inoculation (LPS, 25 mg/kg, i.p.) (SIGMA-ALDRICH®). Control mice were injected with saline alone. The mice were sacrificed in a CO2 chamber 3 hours post-infection/inoculation, and the peritoneal fluid and membrane samples were harvested. Briefly, the abdomen was disinfected and opened in the midline without injuring the muscle. The peritoneal cavity was lavaged with sterile saline solution (1 mL) and analyzed for in vivo NET formation, bacteriology, and leukocyte accumulation. NETs in the peritoneal fluid were qualitatively and quantitatively analyzed using live cell imaging with confocal microscopy and NET-associated histone H3 release assays. NETs on the serosal surface of the peritoneal membrane were assessed quantitatively using live cell imaging, followed by standardized grid analysis of five randomly selected high-power visual fields per tissue sample (IMAGEJ™ software, NIH). Peritoneal bacterial colony forming unit (cfu) counts were quantified by permeabilizing all recovered leukocytes with 0.1% Triton X-100 for 10 minutes and performing serial dilutions and bacterial cultures on 5% sheep blood agar plates (HARDY DIAGNOSTICS™). After a 24-hour incubation, bacterial counts were determined. Total leukocyte counts in the peritoneal lavage were determined in Neubauer chambers using an optical microscope after dilution in Turk's solution (2% acetic acid). Differential leukocyte analysis was performed using a 60× oil immersion objective to assess morphology of cyto-centrifuged cells stained with May-Gruenwald-Giemsa dye. All mice were included in the final analysis.

Substance | IL-8 induced chemotaxis (PMN chemotaxis) | NET formation by peritoneal fluid PMNs [1] | deployment of NETs on the peritoneal surface [1] | number of PMNs in peritoneal fluid [1] | peritoneal NET formation [1]
KFNKPFVFLMIEQNTKSPLFMGKVVNPTQ (listed as Homo sapiens) [nNIF] | did not inhibit | inhibited | inhibited | trend was to greater numbers | inhibited
M_IPPEVKFNKPFVFLMIDQNTKVPLFMGK [CRISPP, consensus peptide based on factors present in the blood of patients with cancer] | did not inhibit | inhibited | inhibited | greater | inhibited
